Molecular target: T1, human kinase Mps-1 (Homo sapiens, UniProt P33981)
T1 construct: N-terminally GST-tagged human full length recombinant Mps-1 kinase; GST (N); purchased Invitrogen, Karslruhe, Germany PV4071
T1 sequence (P33981 1-857): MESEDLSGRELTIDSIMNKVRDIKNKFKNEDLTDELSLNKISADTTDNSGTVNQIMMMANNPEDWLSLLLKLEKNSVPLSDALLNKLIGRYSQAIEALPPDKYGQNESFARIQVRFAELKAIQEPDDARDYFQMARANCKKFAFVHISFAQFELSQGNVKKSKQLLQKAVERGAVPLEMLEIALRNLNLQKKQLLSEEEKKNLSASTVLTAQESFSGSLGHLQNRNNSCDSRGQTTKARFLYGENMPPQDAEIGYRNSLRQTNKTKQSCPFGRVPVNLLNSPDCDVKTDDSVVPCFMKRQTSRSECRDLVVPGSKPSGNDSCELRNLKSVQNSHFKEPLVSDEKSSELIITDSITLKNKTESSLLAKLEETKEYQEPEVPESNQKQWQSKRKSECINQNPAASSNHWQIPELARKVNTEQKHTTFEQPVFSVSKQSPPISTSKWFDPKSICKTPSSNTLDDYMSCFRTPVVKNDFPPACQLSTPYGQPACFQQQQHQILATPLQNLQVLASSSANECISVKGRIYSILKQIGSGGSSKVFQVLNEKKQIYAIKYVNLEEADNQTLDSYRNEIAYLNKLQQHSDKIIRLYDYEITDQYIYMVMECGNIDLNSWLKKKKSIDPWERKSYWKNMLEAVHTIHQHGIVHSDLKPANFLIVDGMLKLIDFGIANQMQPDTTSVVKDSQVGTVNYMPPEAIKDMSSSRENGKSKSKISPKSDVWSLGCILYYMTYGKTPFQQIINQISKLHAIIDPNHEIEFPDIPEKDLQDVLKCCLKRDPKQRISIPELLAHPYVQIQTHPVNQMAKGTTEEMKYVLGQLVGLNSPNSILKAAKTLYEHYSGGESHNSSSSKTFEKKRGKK
Experiment: Mps-1 kinase assay (TR-FRET)
Assay type: biochemical
Details: N-terminally GST-tagged human full length recombinant Mps-1; 10 μM ATP; 1 μM peptide substrate; 15 min pre-incubation; 60 min at 22° C.
How it was run: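 N-terminally GST-tagged full-length recombinant human Mps-1, about 1 nM final, phosphorylates a biotinylated peptide. Product detected by TR-FRET from Eu-anti-phospho-Ser/Thr antibody to streptavidin-XLent after 1 h at 22° C.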

Compound | IC50 [nM]
CN(C)c1ccc(-c2cn3c(-c4ccc(C(=O)NC5CC5)c(F)c4)cnc3c(NCCC(F)(F)F)n2)cc1 [Example 1-113, N-cyclopropyl-4-{6-[4-(dimethylamino)phenyl]-8-[(3,3,3-trifluoropropyl)amino]imidazo[1,2-a]pyrazin-3-yl}-2-fluoro-benzamide] | 11.2
O=C(NC1CC1)c1ccc(-c2cnc3c(NCCCc4ccccc4)nc(-c4ccccc4)cn23)cc1 [Example 2-31, N-cyclopropyl-4-{6-phenyl-8-[(3-phenylpropyl)amino]imidazo[1,2-a]pyrazin-3-yl} benzamide] | 34.8
CC(C)CNc1nc(-c2ccccc2CO)cn2c(-c3ccc(C(=O)NC4CC4)c(Cl)c3)cnc12 [Example 1-95, 2-chloro-N-cyclopropyl-4-{6-[2-(hydroxymethyl)phenyl]-8-[(2-methyl-propyl)amino]imidazo [1,2-a]pyrazin-3-yl} benzamide] | 5.3
Cc1cn2c(-c3ccc(C(=O)NC4CC4)cc3)cnc2c(NCC(C)C)n1 [Example 1-88, N-cyclopropyl-4-{6-methyl-8-[(2-methyl-propyl)amino]imidazo [1,2-a]pyrazin-3-yl} benzamide] | 11.9
CC(C)CNc1nc(-c2cccc(O)c2)cn2c(-c3ccc(C(=O)NC4CC4)cc3)cnc12 [Example 1-66, N-cyclopropyl-4-{6-(3-hydroxyphenyl)-8-[(2-methylpropyl)amino]imidazo[1,2-a]pyrazin-3-yl}benzamide] | 2.2
O=C(NC1CC1)c1ccc(-c2cnc3c(NCCOc4ccccc4)nc(-c4ccccc4)cn23)cc1 [Example 2-40, N-cyclopropyl-4-{8-[(2-phenoxyethyl)amino]-6-phenylimidazo[1,2-a]pyrazin-3-yl}benzamide] | 9.8
CCN1CCC(CNc2nc(-c3ccc(F)cc3)cn3c(-c4ccc(C(=O)NC5CC5)c(C)c4)cnc23)C1 (centres unmarked) [Example 10-9, N-cyclopropyl-4-[8-{[(1-ethylpyrrolidin-3-yl)methyl]amino}-6-(4-fluorophenyl)imidazo [1,2-a]pyrazin-3-yl]-2-methylbenzamide] | 63.4
Cc1ccc(-c2cn3c(-c4ccc(C(=O)NC5CC5)cc4)cnc3c(NCC(C)C)n2)cc1 [Example 1-7, N-cyclopropyl-4-{6-(4-methylphenyl)-8-[(2-methylpropyl)amino]imidazo[1,2-a]pyrazin-3-yl}benzamide] | 5.7
CC(C)CNc1nc(-c2ccc(OC(F)(F)F)cc2)cn2c(-c3ccc(C(=O)NC4CC4)cc3)cnc12 [Example 1-52, N-cyclopropyl-4-{8-[(2-methylpropyl)amino]-6-[4-(trifluoromethoxy)phenyl]imidazo[1,2-a]pyrazin-3-yl}benzamide] | 31.4
CC(=O)c1cccc(-c2cn3c(-c4ccc(C(=O)NC5CC5)cc4)cnc3c(NCC(C)C)n2)c1 [Example 1-46, 4-{6-(3-acetylphenyl)-8-[(2-methylpropyl)amino]imidazo[1,2-a]pyrazin-3-yl}-N-cyclo-propylbenzamide] | 2.3
N#CCCNc1nc(-c2ccccc2)cn2c(-c3ccc(C(=O)NC4CC4)cc3)cnc12 [Example 2-35, 4-{8-[(2-cyanoethyl)amino]-6-phenylimidazo[1,2-a]pyrazin-3-yl}-N-cyclopropyl-benzamide] | 1
CC(C)(O)CNc1nc(-c2cc(F)c(F)c(F)c2)cn2c(-c3ccc(C(=O)NC4CC4)cc3)cnc12 [Example 1-134, N-cyclopropyl-4-{8-[(2-hydroxy-2-methyl-propyl)amino]-6-(3,4,5-trifluorophenyl)imidazo[1,2-a]pyrazin-3-yl} benzamide] | 31.5
CC(C)CNc1nc(-c2ccccc2)c(Br)n2c(-c3ccc(C(=O)NC4CC4)cc3)cnc12 [Example 4-1, 4-{5-bromo-8-[(2-methylpropyl)amino]-6-phenylimidazo[1,2-a]pyrazin-3-yl}-N-cyclopropylbenzamide] | 26.2
COC(=O)CCNc1nc(-c2ccccc2)cn2c(-c3ccc(C(=O)NC4CC4)cc3)cnc12 [Example 2-33, methyl N-{3-[4-(cyclopropylcarbamoyl)phenyl]-6-phenylimidazo[1,2-a]pyrazin-8-yl}-beta-alaninate] | 2.3
O=C(NC1CC1)c1ccc(-c2cnc3c(NCCCCO)nc(-c4ccccc4)cn23)cc1 [Example 2-78, N-cyclopropyl-4-{8-[(4-hydroxybutyl)amino]-6-phenylimidazo[1,2-a]pyrazin-3-yl}benzamide] | 1.1
CC(C)CNc1nc(-c2ccccc2F)cn2c(-c3ccc(C(=O)NC4CC4)cc3)cnc12 [Example 1-51, N-cyclopropyl-4-{6-(2-fluorophenyl)-8-[(2-methylpropyl)amino]imidazo[1,2-a]pyrazin-3-yl}benzamide] | 3.7
CC(C)CNc1nc(-c2ccccc2C(=O)N(C)C)cn2c(-c3ccc(C(=O)NC4CC4)cc3)cnc12 [Example 1-28, 2-{3-[4-(cyclopropyl-carbamoyl)phenyl]-8-[(2-methylpropyl)amino]imidazo[1,2-a]pyrazin-6-yl}-N,N-dimethyl-benzamide] | 8.2
O=C(NC1CC1)c1ccc(-c2cnc3c(NCCCCN4CCCC4)nc(-c4ccccc4)cn23)cc1 [Example 2-45, N-cyclopropyl-4-(6-phenyl-8-{[4-(pyrrolidin-1-yl)butyl]amino}imidazo[1,2-a]pyrazin-3-yl) benzamide] | 11.2
C[S+]([O-])CCNc1nc(-c2ccccc2)cn2c(-c3ccc(C(=O)NC4CC4)cc3)cnc12 (centres unmarked) [Example 2-48, N-cyclopropyl-4-(8-{[2-(methylsulfinyl)ethyl]amino}-6-phenylimidazo[1,2-a]pyrazin-3-yl)benzamide] | 3.4
COCCCNc1nc(-c2ccccc2)cn2c(-c3ccc(C(=O)NC4CC4)cc3)cnc12 [Example 2-46, N-cyclopropyl-4-{8-[(3-methoxypropyl)amino]-6-phenylimidazo[1,2-a]pyrazin-3-yl}benzamide] | 3.5
Cc1ccccc1CNc1nc(-c2ccccc2)cn2c(-c3ccc(C(=O)NC4CC4)cc3)cnc12 [Example 2-5, N-cyclopropyl-4-{8-[(2-methylbenzyl)amino]-6-phenylimidazo[1,2-a]pyrazin-3-yl}benzamide] | 6.5
Cc1cc(-c2cnc3c(NCCC(C)CO)nc(-c4ccc(F)cc4)cn23)ccc1C(=O)NC1CC1 (centres unmarked) [Example 10-5, N-cyclopropyl-4-{6-(4-fluorophenyl)-8-[(4-hydroxy-3-methylbutyl)amino]imidazo[1,2-a]pyrazin-3-yl}-2-methyl-benzamide] | 4.8
CC(C)CNc1nc(-c2ccc3[nH]ccc3c2)cn2c(-c3ccc(C(=O)NC4CC4)cc3)cnc12 [Example 1-74, N-cyclopropyl-4-{6-(1H-indol-5-yl)-8-[(2-methyl-propyl)amino]imidazo [1,2-a]pyrazin-3-yl} benzamide] | 37.7
CC(C)CNc1nc(-c2ccc(C(C)(C)C)cc2)cn2c(-c3ccc(C(=O)NC4CC4)cc3)cnc12 [Example 1-50, 4-{6-(4-tert-butylphenyl)-8-[(2-methylpropyl)amino]imidazo[1,2-a]pyrazin-3-yl}-N-cyclo-propylbenzamide] | 75.4
CN(C)CCCNc1nc(-c2ccccc2)cn2c(-c3ccc(C(=O)NC4CC4)cc3)cnc12 [Example 2-18, N-cyclopropyl-4-(8-{[3-(dimethylamino)propyl]amino}-6-phenylimidazo[1,2-a]pyrazin-3-yl)benzamide] | 26.8
CC(C)CNc1nc(-c2ccc(N3CCNCC3)cc2)cn2c(-c3ccc(C(=O)NC4CC4)cc3)cnc12 [Example 1-89, N-cyclopropyl-4-{8-[(2-methylpropyl)amino]-6-[4-(piperazin-1-yl)phenyl]imidazo[1,2-a]pyrazin-3-yl}benzamide] | 2
CC(C)CNc1nc(-c2cccc(S(=O)(=O)N3CCOCC3)c2)cn2c(-c3ccc(C(=O)NC4CC4)cc3)cnc12 [Example 1-130, N-cyclopropyl-4-{8-(isobutylamino)-6-[3-(morpholin-4-ylsulfonyl)phenyl]imidazo[1,2-a]pyrazin-3-yl}benzamide] | 6.7
Cc1cc(-c2cnc3c(NCC(C)(C)O)nc(-c4ccc(F)cc4)cn23)ccc1C(=O)NC1CC1 [Example 1-136, N-cyclopropyl-4-{6-(4-fluorophenyl)-8-[(2-hydroxy-2-methylpropyl)amino]imidazo[1,2-a]pyrazin-3-yl}-2-methylbenzamide] | 7.9
NS(=O)(=O)CCNc1nc(-c2ccccc2)cn2c(-c3ccc(C(=O)NC4CC4)cc3)cnc12 [Example 2-64, N-cyclopropyl-4-{6-phenyl-8-[(2-sulfamoylethyl)amino]imidazo[1,2-a]pyrazin-3-yl} benzamide] | 1

From patent US20140187548A1, “6 SUBSTITUTED IMIDAZOPYRAZINES FOR USE AS MPS-1 AND TKK INHIBITORS IN THE TREATMENT OF HYPERPROLIFERATIVE DISORDERS” (BAYER INTELLECTUAL PROPERTY GMBH, priority 2010, published 2014)
